Marks after values point to notes of the source that are not given here.
Conditions: pH 2.7

SMILES | Log P
C=CCOC(=O)C(C#N)=C(NC(C)c1nccs1)c1cn(C)nc1C(F)F (mixture of isomers) [Compound 305] | 2.59^[a]
CCOC(=O)C(C#N)=C(NC1CCCCC1C)c1cn(C)nc1C(F)F (stereo not drawn) [Compound 1122] | 3.6^[a]
CCOC(=O)C(C#N)=C(NC(C)C(C)C)c1cccnc1Cl (stereo not drawn) [Compound 952] | 3.37
CCNC(=O)C(C#N)=C(NC(C)c1ccccn1)c1ccnc(Cl)c1F (stereo not drawn) [Compound 1329] | 2.5^[a]
CCOC(=O)C(C#N)=C(NC(C)c1nccs1)c1ccnc(CC(C)C)c1Cl (stereo not drawn) [Compound 1384] | 3.64^[a]
CCOC(=O)C(C#N)=C(NC(C)c1nccs1)c1ccnc2ccccc12 (stereo not drawn) [Compound 1502] | 2.5^[a]
COC(=O)C(C#N)=C(NC(C)c1ccc(C(F)(F)F)cc1)c1cccnc1Cl (stereo not drawn) [Compound 395] | 3.37^[a]
CCOC(=O)C(C#N)=C(NC(C)Cc1nccs1)c1ccncc1F (mixture of isomers) [Compound 302] | 2.19^[a]
CCOC(=O)C(C#N)=C(NC(C)c1ccccn1)c1c(C(F)F)nn(C)c1F (stereo not drawn) [Compound 316] | 2.73^[a]
CCOC(=O)C(C#N)=C(NC(C)CCCC(C)C)c1sc(C)nc1C(F)(F)F (stereo not drawn) [Compound 929] | 5.14^[a]
COC(=O)C(C#N)=C(NC(C)c1nc(C)c(C)s1)c1cn(C)nc1C(F)F (racemic) [Compound 47] | 2.65^[a]
CCOC(=O)C(C#N)=C(NCc1ncc(C)s1)c1sc(C)nc1C(F)(F)F [Compound 219] | 3^[a]
COC(=O)C(C#N)=C(NC1CC(C)CCC1C)c1cccnc1Cl (stereo not drawn) [Compound 1057] | 3.73^[a]
CCOC(=O)C(C#N)=C(NC(C)C(N)=O)c1cn(C)nc1C(F)(F)F (stereo not drawn) [Compound 635] | 1.78^[a]
CCOC(=O)C(C#N)=C(NCc1ccccc1SC)c1cn(C)nc1C(F)F [Compound 476] | 3.17^[a]
CCOC(=O)C(C#N)=C(NC(C)C(C)(C)C)c1cccnc1Cl (stereo not drawn) [Compound 924] | 3.6^[a]
CCOC(=O)C(C#N)=C(NC(C)C(=O)NC)c1cnn(C)c1Cl (stereo not drawn) [Compound 1488] | 1.63^[a]
CCOC(=O)C(C#N)=C(NC(C)c1cccs1)c1sc(C)nc1C(F)(F)F (stereo not drawn) [Compound 212] | 3.8^[a]
CCCCCNC(=C(C#N)C(=O)OCC)c1cccnc1Cl [Compound 1175] | 3.53^[a]
CCOC(=O)C(C#N)=C(NC(C)c1ccccn1)c1c(C(F)F)nn(C)c1Cl (racemic) [Compound 156] | 2.81^[a]
COC(=O)C(C#N)=C(NC1CCS(=O)(=O)C1)c1cccnc1Cl (stereo not drawn) [Compound 125] | 1.33^[a]
CCOC(=O)C(C#N)=C(NC(C)C1CC1)c1cc(Cl)sc1Cl (stereo not drawn) [Compound 887] | 4.36^[a]
CCCCCCC(C)NC(=C(C#N)C(=O)OC)c1sc(C)nc1C(F)(F)F (racemic) [Compound 816] | 4.86^[a]
CCOC(=O)C(C#N)=C(NC(C)C(C)C)c1cn(C)nc1CC (stereo not drawn) [Compound 1205] | 3.13^[a]
C=CC(COCc1ccccc1)NC(=C(C#N)C(=O)OCC)c1sc(C)nc1C(F)(F)F (stereo not drawn) [Compound 692] | 4.21^[a]
CCOC(=O)C(C#N)=C(NC1CCC1)c1ccnc(Cl)c1Cl [Compound 802] | 3.52^[a]
CCOC(=O)C(C#N)=C(NCc1nccs1)c1ccncc1Cl [Compound 259] | 2.11^[a]
CCOC(=O)C(C#N)=C(NC(C)C(=O)NC)c1c(C)nn(C)c1Cl (stereo not drawn) [Compound 606] | 1.7^[a]

Same assay, conditions: pH 7.5

SMILES | Log P
CCOC(=O)C(C#N)=C(NC(C)C(C)C)c1cccnc1Cl (stereo not drawn) [Compound 952] | 3.33
CCOC(=O)C(C#N)=C(NC(C)CSCC)c1cccnc1Cl (stereo not drawn) [Compound 586] | 3.06

Source: patent US8476197B2, “Aminopropenoates as fungicides” (priority 2009, dated 2013)
